Experiments:
Test in all cases: relative viability (nuclei count vs DMSO), 5 days (fraction); higher = more cells survive
[1] = compound: O=C(NC1CCNCC1)c1n[nH]cc1NC(=O)c1c(Cl)cccc1Cl [AT-7519] + Nc1nc2[nH]cc(CCc3ccc(C(=O)N[C@@H](CCC(=O)O)C(=O)O)cc3)c2c(=O)[nH]1 [Pemetrexed] (partner 0.2 µM)
Outline: (§1)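 Lung cancer cell lines in 1536-well plates were dosed by pin tool the day after seeding, either with one drug alone or with a fixed anchor-drug dose plus five library-drug doses (not always all listed) in √10 steps. After 5 days, cells were fixed and their nuclei stained in one step (final 0.05% Triton X-100, 1% formaldehyde, 1 ug/ml Hoechst), then counted on 4× images. Relative viability is the nuclei count in treated wells divided by that in vehicle wells. Values are medians of duplicate plates.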

[2] = compound: O=C(NC1CCNCC1)c1n[nH]cc1NC(=O)c1c(Cl)cccc1Cl [AT-7519] + C[C@@H](Oc1cc(-c2cnn(C3CCNCC3)c2)cnc1N)c1c(Cl)ccc(F)c1Cl [Crizotinib] (partner 1 µM)
Outline: as §1

[3] = compound: C1=CC2=C(C=C(C(=C2N=C1)O)N=NC3=CC4=C(C=C3)C=C(C=C4)S(=O)(=O)O)S(=O)(=O)O + C[C@]1(O)C[C@@H](c2nc(-c3ccc4ccc(-c5ccccc5)nc4c3)c3c(N)nccn32)C1 [Linsitinib] (partner 1 µM)
Outline: as §1

[4] = compound: O=C(NC1CCNCC1)c1n[nH]cc1NC(=O)c1c(Cl)cccc1Cl [AT-7519] + O=C(c1cc(Cc2n[nH]c(=O)c3ccccc23)ccc1F)N1CCN(C(=O)C2CC2)CC1 [Olaparib] (partner 8 µM)
Outline: as §1

NCI-H1755
relative viability ([1]; first compound 0.01 µM): 0.413 | relative viability ([1]; first compound 0.03162 µM): 0.461 | relative viability ([1]; first compound 0.3162 µM): 0.566 | relative viability ([1]; first compound 1 µM): 0.442 | relative viability ([2]; first compound 0.01 µM): 0.837 | relative viability ([2]; first compound 0.03162 µM): 1.03 | relative viability ([2]; first compound 0.3162 µM): 0.935 | relative viability ([2]; first compound 1 µM): 0.688 | relative viability ([3]; first compound 0.08 µM): 1.08 | relative viability ([3]; first compound 0.253 µM): 0.969 | relative viability ([3]; first compound 0.8 µM): 0.954 | relative viability ([3]; first compound 2.53 µM): 1.05 | relative viability ([3]; first compound 8 µM): 0.991 | relative viability ([4]; first compound 0.01 µM): 0.946 | relative viability ([4]; first compound 0.03162 µM): 0.957 | relative viability ([4]; first compound 0.3162 µM): 0.949 | relative viability ([4]; first compound 1 µM): 0.854

HCC-78
relative viability ([1]; first compound 0.01 µM): 0.916 | relative viability ([1]; first compound 0.03162 µM): 0.885 | relative viability ([1]; first compound 0.3162 µM): 0.88 | relative viability ([1]; first compound 1 µM): 0.884 | relative viability ([2]; first compound 0.01 µM): 0.33 | relative viability ([2]; first compound 0.03162 µM): 0.324 | relative viability ([2]; first compound 0.3162 µM): 0.331 | relative viability ([2]; first compound 1 µM): 0.42 | relative viability ([3]; first compound 0.08 µM): 0.614 | relative viability ([3]; first compound 0.253 µM): 0.543 | relative viability ([3]; first compound 0.8 µM): 0.496 | relative viability ([3]; first compound 2.53 µM): 0.469 | relative viability ([3]; first compound 8 µM): 0.399 | relative viability ([4]; first compound 0.01 µM): 1.01 | relative viability ([4]; first compound 0.03162 µM): 0.758 | relative viability ([4]; first compound 0.3162 µM): 0.806 | relative viability ([4]; first compound 1 µM): 0.666

IA-LM
relative viability ([2]; first compound 0.01 µM): 1.02 | relative viability ([2]; first compound 0.03162 µM): 1.03 | relative viability ([2]; first compound 0.3162 µM): 0.573 | relative viability ([2]; first compound 1 µM): 0.0695 | relative viability ([3]; first compound 0.08 µM): 0.822 | relative viability ([3]; first compound 0.253 µM): 0.68 | relative viability ([3]; first compound 0.8 µM): 0.472 | relative viability ([3]; first compound 2.53 µM): 0.755 | relative viability ([3]; first compound 8 µM): 0.568 | relative viability ([4]; first compound 0.01 µM): 0.866 | relative viability ([4]; first compound 0.03162 µM): 0.892 | relative viability ([4]; first compound 0.3162 µM): 0.834 | relative viability ([4]; first compound 1 µM): 0.631

NCI-H322M
relative viability ([1]; first compound 0.01 µM): 0.563 | relative viability ([1]; first compound 0.03162 µM): 0.623 | relative viability ([1]; first compound 0.3162 µM): 0.469 | relative viability ([1]; first compound 1 µM): 0.543 | relative viability ([2]; first compound 0.01 µM): 0.848 | relative viability ([2]; first compound 0.03162 µM): 0.93 | relative viability ([2]; first compound 0.3162 µM): 0.892 | relative viability ([2]; first compound 1 µM): 0.901 | relative viability ([3]; first compound 0.08 µM): 0.905 | relative viability ([3]; first compound 0.253 µM): 0.925 | relative viability ([3]; first compound 0.8 µM): 0.845 | relative viability ([3]; first compound 2.53 µM): 0.916 | relative viability ([3]; first compound 8 µM): 0.99 | relative viability ([4]; first compound 0.01 µM): 0.746 | relative viability ([4]; first compound 0.03162 µM): 0.739 | relative viability ([4]; first compound 0.3162 µM): 0.249 | relative viability ([4]; first compound 1 µM): 0.643

NCI-H3122
relative viability ([1]; first compound 0.01 µM): 0.215 | relative viability ([1]; first compound 0.03162 µM): 0.209 | relative viability ([1]; first compound 0.3162 µM): 0.173 | relative viability ([1]; first compound 1 µM): 0.176 | relative viability ([2]; first compound 0.01 µM): 0.272 | relative viability ([2]; first compound 0.03162 µM): 0.277 | relative viability ([2]; first compound 0.3162 µM): 0.241 | relative viability ([2]; first compound 1 µM): 0.208 | relative viability ([3]; first compound 0.08 µM): 0.998 | relative viability ([3]; first compound 0.253 µM): 0.962 | relative viability ([3]; first compound 0.8 µM): 0.969 | relative viability ([3]; first compound 2.53 µM): 1.01 | relative viability ([3]; first compound 8 µM): 0.96 | relative viability ([4]; first compound 0.01 µM): 0.664 | relative viability ([4]; first compound 0.03162 µM): 0.651 | relative viability ([4]; first compound 0.3162 µM): 0.627 | relative viability ([4]; first compound 1 µM): 0.579

COR-L23
relative viability ([1]; first compound 0.01 µM): 0.182 | relative viability ([1]; first compound 0.03162 µM): 0.184 | relative viability ([1]; first compound 0.3162 µM): 0.211 | relative viability ([1]; first compound 1 µM): 0.173 | relative viability ([2]; first compound 0.01 µM): 0.639 | relative viability ([2]; first compound 0.03162 µM): 0.632 | relative viability ([2]; first compound 0.3162 µM): 0.653 | relative viability ([2]; first compound 1 µM): 0.132 | relative viability ([3]; first compound 0.08 µM): 1.01 | relative viability ([3]; first compound 0.253 µM): 0.927 | relative viability ([3]; first compound 0.8 µM): 0.925 | relative viability ([3]; first compound 2.53 µM): 0.87 | relative viability ([3]; first compound 8 µM): 0.753 | relative viability ([4]; first compound 0.01 µM): 0.362 | relative viability ([4]; first compound 0.03162 µM): 0.361 | relative viability ([4]; first compound 0.3162 µM): 0.264 | relative viability ([4]; first compound 1 µM): 0.102

NCI-H2087
relative viability ([1]; first compound 0.01 µM): 0.612 | relative viability ([1]; first compound 0.03162 µM): 0.536 | relative viability ([1]; first compound 0.3162 µM): 0.568 | relative viability ([1]; first compound 1 µM): 0.344 | relative viability ([2]; first compound 0.01 µM): 0.801 | relative viability ([2]; first compound 0.03162 µM): 0.868 | relative viability ([2]; first compound 0.3162 µM): 0.894 | relative viability ([2]; first compound 1 µM): 0.171 | relative viability ([3]; first compound 0.08 µM): 1 | relative viability ([3]; first compound 0.253 µM): 1.12 | relative viability ([3]; first compound 0.8 µM): 0.82 | relative viability ([3]; first compound 2.53 µM): 0.964 | relative viability ([3]; first compound 8 µM): 1.15 | relative viability ([4]; first compound 0.01 µM): 0.607 | relative viability ([4]; first compound 0.03162 µM): 0.515 | relative viability ([4]; first compound 0.3162 µM): 0.421 | relative viability ([4]; first compound 1 µM): 0.0663

LC-2-ad
relative viability ([1]; first compound 0.01 µM): 0.263 | relative viability ([1]; first compound 0.03162 µM): 0.276 | relative viability ([1]; first compound 0.3162 µM): 0.28 | relative viability ([1]; first compound 1 µM): 0.268 | relative viability ([2]; first compound 0.01 µM): 0.465 | relative viability ([2]; first compound 0.03162 µM): 0.467 | relative viability ([2]; first compound 0.3162 µM): 0.499 | relative viability ([2]; first compound 1 µM): 0.234 | relative viability ([3]; first compound 0.08 µM): 0.623 | relative viability ([3]; first compound 0.253 µM): 0.839 | relative viability ([3]; first compound 0.8 µM): 0.861 | relative viability ([3]; first compound 2.53 µM): 0.805 | relative viability ([3]; first compound 8 µM): 0.918 | relative viability ([4]; first compound 0.01 µM): 0.75 | relative viability ([4]; first compound 0.03162 µM): 0.726 | relative viability ([4]; first compound 0.3162 µM): 0.736 | relative viability ([4]; first compound 1 µM): 0.622

NCI-H1915
relative viability ([1]; first compound 0.01 µM): 0.5 | relative viability ([1]; first compound 0.03162 µM): 0.494 | relative viability ([1]; first compound 0.3162 µM): 0.516 | relative viability ([1]; first compound 1 µM): 0.501 | relative viability ([2]; first compound 0.01 µM): 0.933 | relative viability ([2]; first compound 0.03162 µM): 0.926 | relative viability ([2]; first compound 0.3162 µM): 0.793 | relative viability ([2]; first compound 1 µM): 0.741 | relative viability ([3]; first compound 0.08 µM): 1.06 | relative viability ([3]; first compound 0.253 µM): 1.14 | relative viability ([3]; first compound 0.8 µM): 1.13 | relative viability ([3]; first compound 2.53 µM): 1.08 | relative viability ([3]; first compound 8 µM): 1.14 | relative viability ([4]; first compound 0.01 µM): 0.25 | relative viability ([4]; first compound 0.03162 µM): 0.273 | relative viability ([4]; first compound 0.3162 µM): 0.292 | relative viability ([4]; first compound 1 µM): 0.208

NCI-H1793
relative viability ([1]; first compound 0.01 µM): 0.752 | relative viability ([1]; first compound 0.03162 µM): 0.882 | relative viability ([1]; first compound 0.3162 µM): 0.647 | relative viability ([1]; first compound 1 µM): 0.693 | relative viability ([3]; first compound 0.08 µM): 1.29 | relative viability ([3]; first compound 0.253 µM): 0.678 | relative viability ([3]; first compound 2.53 µM): 1.04 | relative viability ([3]; first compound 8 µM): 0.964 | relative viability ([4]; first compound 0.01 µM): 0.849 | relative viability ([4]; first compound 0.03162 µM): 0.774 | relative viability ([4]; first compound 0.3162 µM): 0.786 | relative viability ([4]; first compound 1 µM): 0.546

— the supplement of paper PMC10307832
